Data as given in paper PMC6446940 (ChemMedChem, 2018).

Columns and labels:
[1] = test system: HIV-1 Env pseudovirus Du422, clone 1; assay: Single-cycle assay TZM-bl, Env pseudovirus panel; conditions: TZM-bl
[2] = test system: HIV-1 Env pseudovirus HIV-25711-2, clone 4; assay: Single-cycle assay TZM-bl, Env pseudovirus panel; conditions: TZM-bl
[3] = test system: HIV-1 Env pseudovirus TRO, clone 11; assay: Single-cycle assay TZM-bl, Env pseudovirus panel; conditions: TZM-bl
[4] = test system: HIV-1 Env pseudovirus QB099.391M.ENV.C8; assay: Single-cycle assay TZM-bl, Env pseudovirus panel; conditions: TZM-bl
[5] = test system: HIV-1 Env pseudovirus CRF02_AG, clone 33; assay: Single-cycle assay TZM-bl, Env pseudovirus panel; conditions: TZM-bl
[6] = test system: HIV-1 Env pseudovirus MG505.W0M.ENV.A2; assay: Single-cycle assay, Paired Infant and Maternal Env clones
[7] = target: HIV-1 Reverse Transcriptase (RT) (Human immunodeficiency virus type 1 group M subtype B, UniProt P04585); assay: biochemical; assay type: biochemical
[8] = test system: HIV-1 Env pseudovirus REJO4541, clone 67; assay: Single-cycle assay TZM-bl, Env pseudovirus panel
[9] = test system: HIV-1 Env pseudovirus B1206.W6P.ENV.A1A; assay: Single-cycle assay, Paired Infant and Maternal Env clones
[10] = test system: HIV-1 Env pseudovirus BJ613.W6M.ENV.E1; assay: as above
[11] = Cytotoxicity; assay type: cell-based; conditions: human, U87-CD4-CCR5 cells
[12] = test system: HIV-1 Env pseudovirus ML274.W0M.ENV.B1; assay: Single-cycle assay, Paired Infant and Maternal Env clones
[13] = test system: HIV-1 Env pseudovirus QH0692, clone 42; assay: Single-cycle assay TZM-bl, Env pseudovirus panel; conditions: TZM-bl
[14] = test system: HIV-1 Env pseudovirus CAP210.2.00.E8; assay: Single-cycle assay TZM-bl, Env pseudovirus panel; conditions: TZM-bl
[15] = test system: HIV-1 Env pseudovirus HIV-16936-2, clone 21; assay: Single-cycle assay TZM-bl, Env pseudovirus panel; conditions: TZM-bl
[16] = test system: HIV-1 Env pseudovirus QA013.70I.ENV.H1; assay: Single-cycle assay TZM-bl, Env pseudovirus panel; conditions: TZM-bl
[17] = test system: HIV-1 Env pseudovirus QF495.23M.ENV.A3; assay: Single-cycle assay TZM-bl, Env pseudovirus panel; conditions: TZM-bl
[18] = test system: HIV-1 Env pseudovirus KNH1144; assay: Single-cycle assay TZM-bl, Env pseudovirus panel
[19] = test system: HIV-1 Env pseudovirus 9021_14.B2.4571; assay: Single-cycle assay TZM-bl, Env pseudovirus panel; conditions: TZM-bl
[20] = test system: HIV-1 Env pseudovirus QA790.204I.ENV.A4; assay: Single-cycle assay TZM-bl, Env pseudovirus panel; conditions: TZM-bl
[21] = test system: HIV-1 Env pseudovirus Q259ENV.W6; assay: Single-cycle assay TZM-bl, Env pseudovirus panel; conditions: TZM-bl
[22] = test system: HIV-1 Env pseudovirus QG393.60M.ENV.B7; assay: Single-cycle assay TZM-bl, Env pseudovirus panel; conditions: TZM-bl
[23] = test system: HIV-1 Env pseudovirus RHPA4259, clone 7; assay: Single-cycle assay TZM-bl, Env pseudovirus panel; conditions: TZM-bl
[24] = test system: control pseudovirus VSV-G; assay: microbe, parasite or virus in culture; assay type: cell-based; conditions: Pseudovirus, U87/CD4/CCR5
[25] = test system: HIV-1 Env pseudovirus CRF02_AG, clone 253; assay: Single-cycle assay TZM-bl, Env pseudovirus panel
[26] = test system: HIV-1 Env pseudovirus WEAUd15.410.5017; assay: Single-cycle assay TZM-bl, Env pseudovirus panel; conditions: TZM-bl
[27] = test system: HIV-1 Env pseudovirus B41; assay: Single-cycle assay TZM-bl, Env pseudovirus panel; conditions: TZM-bl
[28] = test system: HIV-1 Env pseudovirus BK184.W6M.ENV.D2; assay: Single-cycle assay, Paired Infant and Maternal Env clones
[29] = test system: HIV-1 Env pseudovirus MK184.W0M.ENV.E4; assay: as above
[30] = test system: HIV-1 Env pseudovirus CRF02_AG, clone 257; assay: Single-cycle assay TZM-bl, Env pseudovirus panel; conditions: TZM-bl
[31] = test system: HIV-1 Env pseudovirus QD435.100M.ENV.E1; assay: Single-cycle assay TZM-bl, Env pseudovirus panel
[32] = test system: HIV-1 Env pseudovirus BG505.W6M.ENV.C2; assay: Single-cycle assay, Paired Infant and Maternal Env clones
[33] = test system: HIV-1 Env pseudovirus PVO, clone 4; assay: Single-cycle assay TZM-bl, Env pseudovirus panel; conditions: TZM-bl
[34] = test system: HIV-1 Env pseudovirus THRO4156, clone 18; assay: Single-cycle assay TZM-bl, Env pseudovirus panel
[35] = test system: HIV-1 Env pseudovirus QA790.204I.ENV.E2; assay: Single-cycle assay TZM-bl, Env pseudovirus panel; conditions: TZM-bl

Structure (SMILES): NCC(NC(=O)c1ccc(-c2ccc3c(c2)OCO3)[nH]1)c1ncc(CO)s1 (stereo not drawn) [NBD-14123, N-(2-amino-1-(5-(hydroxymethyl)thiazol-2-yl)ethyl)-5-(benzo[d][1,3]dioxol-5-yl)-1H-pyrrole-2-carboxamide]
- IC50 [1]: 2.5 ± 0.3 µM
- IC50 [2]: 5.7 ± 0.7 µM
- IC50 [3]: 3.6 ± 0.2 µM
- IC50 [4]: 4.4 ± 0.6 µM
- IC50 [5]: 3.5 ± 0.4 µM
- IC50 [6]: 3.7 ± 0.2 µM
- IC50 [7]: 39.5 ± 2.8 µM
- IC50 [8]: 3.4 ± 0.2 µM
- IC50 [9]: 4.9 ± 0.3 µM
- IC50 [10]: 2.5 ± 0.1 µM
- CC50 at 3 days [11]: > 100 µM
- IC50 [12]: 5.6 ± 0.4 µM
- IC50 [13]: 6.4 ± 0.1 µM
- IC50 [14]: 5.3 ± 0.2 µM
- IC50 [15]: 4.4 ± 0.5 µM
- IC50 [16]: 2.5 ± 0.4 µM
- IC50 [17]: 3.3 ± 0.2 µM
- IC50 [18]: 4.1 ± 0.4 µM
- IC50 [19]: 2.1 ± 0.6 µM
- IC50 [20]: 1.6 ± 0.1 µM
- IC50 [21]: 2.3 ± 0.2 µM
- IC50 [22]: 5.9 ± 0.2 µM
- IC50 [23]: 3.1 ± 0.7 µM
- IC50 [24]: 45.3 ± 2.3 µM
- IC50 [25]: 3.2 ± 0.2 µM
- IC50 [26]: 3.4 ± 0.2 µM
- IC50 [27]: 2.8 ± 0.3 µM
- IC50 [28]: 3.6 ± 0.1 µM
- IC50 [29]: 3.7 ± 0.1 µM
- IC50 [30]: 4.4 ± 0.1 µM
- IC50 [31]: 5.3 ± 0.4 µM
- IC50 [32]: 4.4 ± 0.1 µM
- IC50 [33]: 1.9 ± 0.2 µM
- IC50 [34]: 3.1 ± 0.1 µM
- IC50 [35]: 2.5 ± 0.3 µM

Structure (SMILES): CNCC(NC(=O)c1ccc(-c2ccc3c(c2)OCO3)[nH]1)c1nc(CO)cs1 (stereo not drawn) [NBD-14159, 5-(benzo[d][1,3]dioxol-5-yl)-N-(1-(4-(hydroxymethyl)thiazol-2-yl)-2-(methylamino)ethyl)-1H-pyrrole-2-carboxamide]
- IC50 [1]: 3.1 ± 0.3 µM
- IC50 [2]: 5.8 ± 0.3 µM
- IC50 [3]: 4.4 ± 0.6 µM
- IC50 [4]: 5 ± 0.1 µM
- IC50 [5]: 2.7 ± 0.2 µM
- IC50 [6]: 4.6 ± 0.1 µM
- IC50 [8]: 3.1 ± 0.4 µM
- IC50 [9]: 4 ± 0.3 µM
- IC50 [10]: 3 ± 0.1 µM
- CC50 at 3 days [11]: > 100 µM
- IC50 [12]: 5.4 ± 0.5 µM
- IC50 [13]: 5.8 ± 0.7 µM
- IC50 [14]: 3.5 ± 0.2 µM
- IC50 [15]: 5.3 ± 0.2 µM
- IC50 [16]: 4.3 ± 0.7 µM
- IC50 [17]: 3.7 ± 0.1 µM
- IC50 [18]: 4 ± 0.3 µM
- IC50 [19]: 3.7 ± 0.3 µM
- IC50 [20]: 4 ± 0.4 µM
- IC50 [21]: 1.3 ± 0.2 µM
- IC50 [22]: 3.8 ± 0.4 µM
- IC50 [23]: 3.7 ± 0.4 µM
- IC50 [24]: 41.3 ± 3.4 µM
- IC50 [25]: 3.1 ± 0.1 µM
- IC50 [26]: 3.3 ± 0.2 µM
- IC50 [27]: 1.7 ± 0.1 µM
- IC50 [28]: 4.2 ± 0.1 µM
- IC50 [29]: 2.6 ± 0.1 µM
- IC50 [30]: 4.8 ± 0.2 µM
- IC50 [31]: 3.5 ± 0.2 µM
- IC50 [32]: 4.7 ± 0.5 µM
- IC50 [33]: 4.3 ± 0.7 µM
- IC50 [34]: 2.7 ± 0.2 µM
- IC50 [35]: 3.2 ± 0.2 µM
